Experimental findings from US8835440B2, “Cyclic pyrimidin-4-carboxamides as CCR2 receptor antagonists for treatment of inflammation, asthma and COPD” (Boehringer Ingelheim International GmbH, priority 2008, dated 2014) are described below.

SMILES strings stand for the structures.

One may read the Ki as the dissociation constant of the complex between target and ligand, obtained from inhibition or displacement. The low end stands for tighter binding, the high end for weaker binding.

In the first experiment the target is T1, CCR2 (Homo sapiens, UniProt P41597).
T1 construct: Membranes were prepared from THP-1 cells; endogenous in cells; host or cells: THP-1 cells (membrane preparation)
T1 sequence (P41597 1-360 isoform P41597-2): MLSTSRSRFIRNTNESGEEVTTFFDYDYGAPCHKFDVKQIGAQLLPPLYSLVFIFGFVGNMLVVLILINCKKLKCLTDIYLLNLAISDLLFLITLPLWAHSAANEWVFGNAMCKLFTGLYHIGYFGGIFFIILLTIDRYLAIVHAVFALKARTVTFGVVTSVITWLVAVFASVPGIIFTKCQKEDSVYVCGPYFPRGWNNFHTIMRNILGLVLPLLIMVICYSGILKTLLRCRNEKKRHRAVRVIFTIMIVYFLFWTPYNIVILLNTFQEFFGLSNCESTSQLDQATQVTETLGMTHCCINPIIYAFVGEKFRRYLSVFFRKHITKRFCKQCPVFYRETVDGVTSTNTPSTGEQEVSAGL
Description: CCR2 receptor membrane binding assay ([125I]MCP-1, THP-1 cell membranes, SPA beads). To be noted: @ 10 μM test compound; THP-1 membranes; 10 µM. Summed up: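 Human THP-1 monocytic cell membranes, pre-coupled to WGA-PVT SPA beads, were incubated with compound and [125I]MCP-1 (ca. 25000 cpm) in 25 mM HEPES pH 7.2, 5 mM MgCl2, 0.5 mM CaCl2, 0.2% BSA, at 1% DMSO final. Bound radioactivity was counted after 8 h, and Ki was obtained by iterative mass-action fitting.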
Regarding `COc1ccc(CCNc2ncnc(C(=O)N3CCC(N4CCC(O)CC4)CC3)c2C)cc1Cl` [Example 119], the “CCR2 % ctrl @ 10 μM” value is listed as 37 % ctrl.

Regarding `Cc1ccc(CNc2ncnc(C(=O)N3CCC(N4CCCCC4)CC3)c2C)cc1F` [Example 137], the “CCR2 % ctrl @ 10 μM” value stood at 14 % ctrl.

The experiment is the same for the next values; noted with them: @ 10 μM test compound; THP-1 membranes; read-out: CCR2 % ctrl @ 10 μM.
For `Cc1c(NCc2ccc(C(F)(F)F)c(Cl)c2)ncnc1C(=O)N1CCC(N2CCC(O)CC2)CC1` [Example 116], the remaining activity at 10 µM turned out to be 16%.

For `Cc1c(NCc2ccc(Cl)c(F)c2)ncnc1C(=O)N1CCC(N2CCC(O)CC2)CC1` [Example 117], the remaining activity at 10 µM was 19%.

On to `Cc1cc(CNc2ncnc(C(=O)N3CCC(N4CCC(O)CC4)CC3)c2C)ccc1F` [Example 118], for which the remaining activity at 10 µM was determined as 41%.

Turning to `Cc1ccc(CNc2ncnc(C(=O)N3CCC(N4CCC(O)CC4)CC3)c2C)cc1F` [Example 120], the remaining activity at 10 µM worked out at 30%.

As to `Cc1c(NCC2CCC(c3ccccc3)CC2)ncnc1C(=O)N1CCC(N2CCC(O)CC2)CC1` (centres unmarked) [Example 121], the remaining activity at 10 µM amounted to 15%.

Turning to `Cc1c(NCCc2cccc(Cl)c2)ncnc1C(=O)N1CCC(N2CCC(O)CC2)CC1` [Example 122], the remaining activity at 10 µM is 23%.

As to `Cc1c(NCc2cccc(Cl)c2)ncnc1C(=O)N1CCC(N2CCC(O)CC2)CC1` [Example 123], the remaining activity at 10 µM is 26%.

On to `Cc1c(NCCc2ccc(Cl)cc2)ncnc1C(=O)N1CCC(N2CCC(O)CC2)CC1` [Example 124], for which the remaining activity at 10 µM is 20%.

`Cc1c(NCc2ccc(Cl)c(C(F)(F)F)c2)ncnc1C(=O)N1CCC(N2CCC(O)CC2)CC1` [Example 125]: the remaining activity at 10 µM turned out to be 25%.

In the case of `Cc1ccc(CCNc2ncnc(C(=O)N3CCC(N4CCC(O)CC4)CC3)c2C)cc1C` [Example 126], the remaining activity at 10 µM came out at 23%.

As to `Cc1c(NCc2ccc(Cl)cc2)ncnc1C(=O)N1CCC(N2CCCCC2)CC1` [Example 127], the remaining activity at 10 µM was found to be 35%.

In the case of `Cc1c(NCc2ccc(F)c(Cl)c2)ncnc1C(=O)N1CCC(N2CCCCC2)CC1` [Example 128], the remaining activity at 10 µM came to 26%.

As for `Cc1c(NCCc2ccc(C(C)(C)C)cc2)ncnc1C(=O)N1CCC(N2CCCCC2)CC1` [Example 129], the remaining activity at 10 µM was 21%.

For the compound `Cc1c(NCC2CCN(c3ccccc3)CC2)ncnc1C(=O)N1CCC(N2CCCCC2)CC1` [Example 130], the remaining activity at 10 µM was 50%.

Consider `Cc1c(NCC2CCCC(c3ccccc3)C2)ncnc1C(=O)N1CCC(N2CCCCC2)CC1` (centres unmarked) [Example 131], for which the remaining activity at 10 µM came to 6%.

As for `Cc1c(NCCc2ccc(F)c(F)c2)ncnc1C(=O)N1CCC(N2CCCCC2)CC1` [Example 132], the remaining activity at 10 µM worked out at 31%.

In the case of `Cc1c(NCc2ccc(C(F)(F)F)c(Cl)c2)ncnc1C(=O)N1CCC(N2CCCCC2)CC1` [Example 133], the remaining activity at 10 µM was 15%.

Consider `Cc1c(NCc2ccc(Cl)c(F)c2)ncnc1C(=O)N1CCC(N2CCCCC2)CC1` [Example 134], for which the remaining activity at 10 µM was 23%.

As to `Cc1cc(CNc2ncnc(C(=O)N3CCC(N4CCCCC4)CC3)c2C)ccc1F` [Example 135], the remaining activity at 10 µM is 19%.

On to `COc1ccc(CCNc2ncnc(C(=O)N3CCC(N4CCCCC4)CC3)c2C)cc1Cl` [Example 136], for which the remaining activity at 10 µM was 14%.

Staying with this experiment, now noted: dissociation constant hKi; [125I]MCP-1 binding to THP-1 membranes.
With `Cc1c(NCc2ccc(C(F)(F)F)c(Cl)c2)ncnc1C(=O)N1CCC(N2CCC(O)CC2)CC1` [Example 116], the Ki amounted to 198 nM.

`Cc1c(NCc2ccc(Cl)c(F)c2)ncnc1C(=O)N1CCC(N2CCC(O)CC2)CC1` [Example 117] returned a Ki of 285 nM.

`Cc1cc(CNc2ncnc(C(=O)N3CCC(N4CCC(O)CC4)CC3)c2C)ccc1F` [Example 118] registered a Ki of 2160 nM.

Compound `COc1ccc(CCNc2ncnc(C(=O)N3CCC(N4CCC(O)CC4)CC3)c2C)cc1Cl` [Example 119] gave a Ki of 1030 nM.

Regarding `Cc1ccc(CNc2ncnc(C(=O)N3CCC(N4CCC(O)CC4)CC3)c2C)cc1F` [Example 120], the Ki stood at 499 nM.

Compound `Cc1c(NCC2CCC(c3ccccc3)CC2)ncnc1C(=O)N1CCC(N2CCC(O)CC2)CC1` (centres unmarked) [Example 121] returned a Ki of 147 nM.

With `Cc1c(NCCc2cccc(Cl)c2)ncnc1C(=O)N1CCC(N2CCC(O)CC2)CC1` [Example 122], the Ki worked out at 415 nM.

In turn, `Cc1c(NCc2cccc(Cl)c2)ncnc1C(=O)N1CCC(N2CCC(O)CC2)CC1` [Example 123] came in with a Ki of 542 nM.

With `Cc1c(NCCc2ccc(Cl)cc2)ncnc1C(=O)N1CCC(N2CCC(O)CC2)CC1` [Example 124], affinity was put at a Ki of 361 nM.

`Cc1c(NCc2ccc(Cl)c(C(F)(F)F)c2)ncnc1C(=O)N1CCC(N2CCC(O)CC2)CC1` [Example 125]: affinity was put at a Ki of 446 nM.

As for `Cc1ccc(CCNc2ncnc(C(=O)N3CCC(N4CCC(O)CC4)CC3)c2C)cc1C` [Example 126], the Ki was determined as 399 nM.

Consider `Cc1c(NCc2ccc(Cl)cc2)ncnc1C(=O)N1CCC(N2CCCCC2)CC1` [Example 127], for which the Ki stood at 665 nM.

In the case of `Cc1c(NCc2ccc(F)c(Cl)c2)ncnc1C(=O)N1CCC(N2CCCCC2)CC1` [Example 128], the affinity corresponds to a Ki of 445 nM.

With `Cc1c(NCCc2ccc(C(C)(C)C)cc2)ncnc1C(=O)N1CCC(N2CCCCC2)CC1` [Example 129], the inhibitory constant (Ki) amounted to 336 nM.

In turn, `Cc1c(NCC2CCN(c3ccccc3)CC2)ncnc1C(=O)N1CCC(N2CCCCC2)CC1` [Example 130] had a Ki of 4270 nM.

`Cc1c(NCC2CCCC(c3ccccc3)C2)ncnc1C(=O)N1CCC(N2CCCCC2)CC1` (centres unmarked) [Example 131] had a Ki of 55 nM.

Compound `Cc1c(NCCc2ccc(F)c(F)c2)ncnc1C(=O)N1CCC(N2CCCCC2)CC1` [Example 132] gave an inhibition constant (Ki) of 672 nM.

In turn, `Cc1c(NCc2ccc(C(F)(F)F)c(Cl)c2)ncnc1C(=O)N1CCC(N2CCCCC2)CC1` [Example 133] returned a Ki of 205 nM.

`Cc1c(NCc2ccc(Cl)c(F)c2)ncnc1C(=O)N1CCC(N2CCCCC2)CC1` [Example 134] showed a Ki of 399 nM.

`Cc1cc(CNc2ncnc(C(=O)N3CCC(N4CCCCC4)CC3)c2C)ccc1F` [Example 135]: the affinity, expressed as Ki, was 888 nM.

With `COc1ccc(CCNc2ncnc(C(=O)N3CCC(N4CCCCC4)CC3)c2C)cc1Cl` [Example 136], the Ki was determined as 773 nM.

Consider `Cc1ccc(CNc2ncnc(C(=O)N3CCC(N4CCCCC4)CC3)c2C)cc1F` [Example 137], for which the inhibitory constant (Ki) came to 634 nM.
